Read-outs that look alike come from different tables or passages of the source.
Tests used:
Assay type in all cases: biochemical
cKit = target: T1, cKit (Homo sapiens, UniProt P10721); assay: cKit LanthaScreen TR-FRET kinase phosphorylation assay; details: recombinant kinase domain
T1 construct: using the recombinant domains of cMet, cKit, ALK and PDGFRalpha kinases
Experimental: (§1) The compounds are assayed in an antibody based kinase phosphorylation assay using the recombinant domains of cMet, cKit, ALK and PDGFRalpha kinases and a generic phospho-tyrosine peptide substrate. LanthaScreen™ is the detection of Time-Resolved Fluorescence Resonance Energy Transfer (TR-FRET) using lanthanide chelates to measure interactions between various binding partners. In a TR-FRET kinase assay, a long-lifetime lanthanide donor species is conjugated to an antibody that specifically binds to a phosphorylated product of a kinase reaction that is labeled with a suitable acceptor fluorophore. This antibody-mediated interaction brings the lanthanide donor and the acceptor into proximity such that resonance energy transfer can take place, resulting in a detectible increase in FRET. The LanthaScreen is run at ambient temperature and terminated by the addition of stop solution, followed by Tb-labeled P-20 antibody. After incubating in the dark, the plates are transferred to a fluorescence reader for counting. The effect of compound on the enzymatic activity is in all assays obtained from the linear progress curves and determined from one reading (end point measurement).

GST-JAK2(808-1132) = target: T2, GST-JAK2(808-1132) (Homo sapiens, UniProt O60674); assay: JAK2 kinase assay (Caliper mobility shift, LabChip 3000)
T2 construct: GST-JAK2(808-1132); purchased Invitrogen (Carlsbad, USA) #4288
In short: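 Eight-point compound series (final 10–0.003 μM) tested on purchased GST-JAK2 kinase domain (808-1132). Peptide FITC-JAK3tide plus ATP reacted 60 min, 30 °C, then quenched with EDTA; turnover from charge-based separation of substrate and product.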

PDGFRalpha = target: T3, PDGFRalpha (Homo sapiens, UniProt P16234); assay: PDGFRalpha LanthaScreen TR-FRET kinase phosphorylation assay; details: recombinant kinase domain, read-out: PDGFRa/IC50
T3 construct: using the recombinant domains of cMet, cKit, ALK and PDGFRalpha kinases
Experimental: as §1

ALK = target: T4, ALK (Homo sapiens, UniProt Q9UM73); assay: ALK LanthaScreen TR-FRET kinase phosphorylation assay; details: recombinant kinase domain
T4 construct: using the recombinant domains of cMet, cKit, ALK and PDGFRalpha kinases
Experimental: as §1

cMet = target: T5, cMet (Homo sapiens, UniProt P08581); assay: cMet LanthaScreen TR-FRET kinase phosphorylation assay; details: recombinant kinase domain
T5 construct: using the recombinant domains of cMet, cKit, ALK and PDGFRalpha kinases
Experimental: as §1

T2 sequence (O60674 808-1132): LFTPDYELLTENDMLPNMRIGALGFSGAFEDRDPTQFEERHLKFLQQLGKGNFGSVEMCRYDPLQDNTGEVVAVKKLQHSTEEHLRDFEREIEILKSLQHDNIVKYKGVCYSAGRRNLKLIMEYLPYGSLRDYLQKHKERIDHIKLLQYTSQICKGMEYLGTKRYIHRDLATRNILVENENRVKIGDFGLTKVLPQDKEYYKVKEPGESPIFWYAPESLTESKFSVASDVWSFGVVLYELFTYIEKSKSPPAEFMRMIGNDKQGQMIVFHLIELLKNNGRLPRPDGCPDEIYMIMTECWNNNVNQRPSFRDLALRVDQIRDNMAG
T5 sequence (P08581 1078-1345 limits assumed): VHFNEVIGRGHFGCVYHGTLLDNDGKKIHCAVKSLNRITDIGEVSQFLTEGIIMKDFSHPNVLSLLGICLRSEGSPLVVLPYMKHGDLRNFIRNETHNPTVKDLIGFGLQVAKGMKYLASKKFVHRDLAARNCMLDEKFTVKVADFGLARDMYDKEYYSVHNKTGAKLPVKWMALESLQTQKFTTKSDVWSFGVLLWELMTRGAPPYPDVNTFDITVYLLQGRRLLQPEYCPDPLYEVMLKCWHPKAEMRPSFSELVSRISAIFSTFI
T1 sequence (P10721 589-937 limits assumed): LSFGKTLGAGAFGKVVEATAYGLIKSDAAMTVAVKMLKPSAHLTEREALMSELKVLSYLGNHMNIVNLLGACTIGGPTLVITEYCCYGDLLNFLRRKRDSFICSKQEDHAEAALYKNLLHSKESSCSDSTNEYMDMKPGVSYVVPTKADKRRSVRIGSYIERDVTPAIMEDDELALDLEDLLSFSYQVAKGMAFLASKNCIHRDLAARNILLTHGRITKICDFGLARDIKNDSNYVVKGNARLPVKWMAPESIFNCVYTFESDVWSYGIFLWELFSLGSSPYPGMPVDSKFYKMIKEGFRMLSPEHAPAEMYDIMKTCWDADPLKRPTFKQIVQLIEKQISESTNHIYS
T3 sequence (P16234 593-954 limits assumed, species assumed): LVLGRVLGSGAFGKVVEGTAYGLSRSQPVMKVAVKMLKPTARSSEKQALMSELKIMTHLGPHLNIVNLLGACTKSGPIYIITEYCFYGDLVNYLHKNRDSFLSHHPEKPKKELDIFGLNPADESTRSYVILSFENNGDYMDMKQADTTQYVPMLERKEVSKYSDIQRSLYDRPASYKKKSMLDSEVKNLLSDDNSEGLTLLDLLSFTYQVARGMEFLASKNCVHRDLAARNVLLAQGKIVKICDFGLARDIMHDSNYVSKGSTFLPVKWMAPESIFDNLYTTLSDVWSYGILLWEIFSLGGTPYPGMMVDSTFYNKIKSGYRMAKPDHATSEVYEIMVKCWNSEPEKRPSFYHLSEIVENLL
T4 sequence (Q9UM73 1116-1392 limits assumed, species assumed): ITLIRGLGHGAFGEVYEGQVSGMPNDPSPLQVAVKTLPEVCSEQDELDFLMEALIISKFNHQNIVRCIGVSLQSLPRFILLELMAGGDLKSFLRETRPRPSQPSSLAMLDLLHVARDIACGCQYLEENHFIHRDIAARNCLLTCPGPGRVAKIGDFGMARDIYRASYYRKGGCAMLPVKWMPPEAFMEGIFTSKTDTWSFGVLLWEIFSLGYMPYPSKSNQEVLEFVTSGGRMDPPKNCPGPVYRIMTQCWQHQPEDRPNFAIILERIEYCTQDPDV

Structure (SMILES)	IC50 (cKit)	IC50 (GST-JAK2(808-1132))	IC50 (GST-JAK2(808-1132); Table 3)	IC50 (PDGFRalpha)	IC50 (ALK)	IC50 (cMet)
CC(C)Oc1ccc(Nc2ncc3ccn(-c4ccc(C#N)cc4)c3n2)cc1 [Example 96, 4-[2-(4-Isopropoxy-phenylamino)-pyrrolo[2,3-d]pyrimidin-7-yl]-benzonitrile]	> 10 µM	0.0485 µM	0.0485 µM	> 10 µM	> 10 µM	> 10 µM
COc1cc(Nc2ncc3ccn(-c4ccc(C(=O)N5CCOCC5)c(F)c4)c3n2)ccc1F [Example 151, {2-Fluoro-4-[2-(4-fluoro-3-methoxy-phenylamino)-pyrrolo[2,3-d]pyrimidin-7-yl]-phenyl}-morpholin-4-yl-methanone]	> 10 µM	0.0057 µM	0.0057 µM	> 10 µM	> 10 µM	> 10 µM
COCc1ccc(Nc2ncc3ccn(-c4cc(F)c(CN5CCS(=O)(=O)CC5)c(F)c4)c3n2)cc1 [Example 184, {7-[4-(1,1-Dioxido-thiomorpholin-4-ylmethyl)-3,5-difluoro-phenyl]-7H-pyrrolo[2,3-d]pyrimidin-2-yl}-(4-methoxymethyl-phenyl)-amine]	> 10 µM	< 0.003 µM	< 0.003 µM	> 10 µM	> 10 µM	> 10 µM
CN1CCN(C(=O)c2cccc(Nc3ncc4ccn(-c5cc(F)c(CN6CCOCC6)c(F)c5)c4n3)c2)CC1 [Example 203, {3-[7-(3,5-Difluoro-4-morpholin-4-ylmethyl-phenyl)-7H-pyrrolo[2,3-d]pyrimidin-2-ylamino]-phenyl}-(4-methyl-piperazin-1-yl)-methanone]	4.7 µM	0.0074 µM	0.0064 µM	> 10 µM	> 10 µM	6.9 µM
Cc1ccc(Nc2ncc3ccn(-c4ccc(C(=O)N5CCOCC5)cc4)c3n2)cn1 [Example 238, {4-[2-(6-Methyl-pyridin-3-ylamino)-pyrrolo[2,3-d]pyrimidin-7-yl]-phenyl}-morpholin-4-yl-methanone]	> 10 µM	0.0111 µM	0.0111 µM	6.6 µM	> 10 µM	8.2 µM
Cc1ccc(Nc2ncc3ccn(-c4ccc(C(=O)N5CCN(CCO)CC5)cc4)c3n2)cc1C [Example 300, {4-[2-(3,4-Dimethyl-phenylamino)-pyrrolo[2,3-d]pyrimidin-7-yl]-phenyl}-[4-(2-hydroxy-ethyl)-piperazin-1-yl]-methanone]	3.4 µM	0.0175 µM	0.0175 µM	7.7 µM	> 10 µM	> 10 µM
Cn1cc(Nc2ncc3ccn(-c4ccc(CC(=O)N5CCOCC5)cc4)c3n2)cn1 [Example 301, 2-{4-[2-(1-Methyl-1H-pyrazol-4-ylamino)-pyrrolo[2,3-d]pyrimidin-7-yl]-phenyl}-1-morpholin-4-yl-ethanone]	4.75 µM	< 0.003 µM	< 0.003 µM	5.6 µM	> 10 µM	3.6 µM
Cc1cc(Nc2ncc3ccn(-c4ccc(C(=O)N5CCOCC5)c(F)c4)c3n2)nn1C [Example 311, {4-[2-(1,5-Dimethyl-1H-pyrazol-3-ylamino)-pyrrolo[2,3-d]pyrimidin-7-yl]-2-fluoro-phenyl}-morpholin-4-yl-methanone]	> 10 µM	0.031 µM	0.031 µM	> 10 µM	> 10 µM	> 10 µM
Cc1ccc(Nc2ncc3ccn(-c4cc(F)c(CN5CCOCC5)c(F)c4)c3n2)cc1CN1CCNCC1 [Example 332, [7-(3,5-Difluoro-4-morpholin-4-ylmethyl-phenyl)-7H-pyrrolo[2,3-d]pyrimidin-2-yl]-(4-methyl-3-piperazin-1-ylmethyl-phenyl)-amine]	1.55 µM	≤ 0.003 µM	–	6.7 µM	9.05 µM	7.57 µM
Fc1cc(-n2ccc3cnc(Nc4ccnc(CN5CCNCC5)c4)nc32)cc(F)c1CN1CCOCC1 [Example 372, [7-(3,5-Difluoro-4-morpholin-4-ylmethyl-phenyl)-7H-pyrrolo[2,3-d]pyrimidin-2-yl]-(2-piperazin-1-ylmethyl-pyridin-4-yl)-amine]	5.7 µM	0.0047 µM	0.0047 µM	> 10 µM	> 10 µM	> 10 µM
C[C@@H]1CN(c2ccc(Nc3ncc4ccn(-c5ccc(NS(C)(=O)=O)cc5)c4n3)cn2)C[C@H](C)N1 [Example 380, N-(4-{2-[6-(cis-3,5-Dimethyl-piperazin-1-yl)-pyridin-3-ylamino]-pyrrolo[2,3-d]pyrimidin-7-yl}-phenyl)-methanesulfonamide]	1.7 µM	0.0032 µM	0.0032 µM	5.3 µM	> 10 µM	5.4 µM
Cc1ccc(Nc2ncc3ccn(-c4cc(F)c(CN5CCNC(=O)C5)c(F)c4)c3n2)cc1CN1CCNCC1 [Example 382, 4-{2,6-Difluoro-4-[2-(4-methyl-3-piperazin-1-ylmethyl-phenylamino)-pyrrolo[2,3-d]pyrimidin-7-yl]-benzyl}-piperazin-2-one]	1.1 µM	0.0035 µM	0.0035 µM	7.7 µM	> 10 µM	2.4 µM
CN1CCN(c2ccc(Nc3ncc4ccn(-c5cc(F)c(CN6CCS(=O)(=O)CC6)c(F)c5)c4n3)nc2)CC1 [Example 440, {7-[4-(1,1-Dioxido-thiomorpholin-4-ylmethyl)-3,5-difluoro-phenyl]-7H-pyrrolo[2,3-d]pyrimidin-2-yl}-[5-(4-methyl-piperazin-1-yl)-pyridin-2-yl]-amine]	> 10 µM	0.0032 µM	0.0032 µM	> 10 µM	> 10 µM	> 10 µM
COCc1c(F)cc(-n2ccc3cnc(Nc4ccc(N5CCN(C)CC5)nc4)nc32)cc1F [Example 446, [7-(3,5-Difluoro-4-methoxymethyl-phenyl)-7H-pyrrolo[2,3-d]pyrimidin-2-yl]-[6-(4-methyl-piperazin-1-yl)-pyridin-3-yl]-amine]	2.65 µM	0.0043 µM	0.0043 µM	7.45 µM	> 10 µM	6 µM
CC1(C)NCCN(c2cc(Nc3ncc4ccn(-c5cc(F)c(CN6CCOCC6)c(F)c5)c4n3)ccn2)C1=O [Example 503, 1-{4-[7-(3,5-Difluoro-4-morpholin-4-ylmethyl-phenyl)-7H-pyrrolo[2,3-d]pyrimidin-2-ylamino]-pyridin-2-yl}-3,3-dimethyl-piperazin-2-one]	9.5 µM	≤ 0.003 µM	< 0.003 µM	> 10 µM	> 10 µM	6.1 µM

Source: patent publication US8420657B2 (Novartis AG, priority 2008, dated 2013)
